From the supplement of paper PMC10627819

Assays:
B. subtilis 168 [1] = assay: fitness (endpoint OD595 vs no drug) (fraction); higher = more growth
In short: (§1)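 Bacterial fitness was scored as optical density at the stationary-phase transition relative to the robust mean of no-drug control wells. Scores are capped at 1. The growth data were OD595 readings every 30 min for 14 h at 37 °C, background-subtracted against the first reading, from 384-well plates inoculated at OD595 0.01 in TSB, LB Lennox or CY.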

S. pneumoniae D39V [2] = assay: as above
In short: as §1

B. subtilis 168 [3] = assay: Bliss interaction score (quartile over a dose matrix) (fitness difference); higher = more antagonism (negative = synergy)
In short: (§2)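 The Bliss score is observed fitness minus expected fitness, where the expected value is the product of single-drug fitness values inferred from combination data. Fitness is OD595 at entry into stationary phase normalised to the plate's robust no-drug mean and capped at 1. Scores are reported as quartiles spanning technical, biological and donor/recipient replicates.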

S. aureus DSM 20231 = assay: as above
In short: as §2

S. aureus Newman = assay: as above
In short: as §2

S. pneumoniae D39V [4] = assay: as above
In short: as §2
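For Bliss interaction score (quartile over a dose matrix) in this document: first quartile when negative (synergy) and third quartile when positive (antagonism).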
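For fitness (endpoint OD595 vs no drug) in this document: OD595 on entry to stationary phase over no-drug wells; at most 1.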

O=C(O)c1cn(C2CC2)c2cc(N3CCNCC3)c(F)cc2c1=O [Ciprofloxacin] + CN(C)C(=O)C(CCN1CCC(O)(c2ccc(Cl)cc2)CC1)(c1ccccc1)c1ccccc1 [Loperamide]
Details	fitness
B. subtilis 168 [1], first compound 0.0098 µg/mL, partner 25 µg/mL	0.855
B. subtilis 168 [1], first compound 0.0195 µg/mL, partner 25 µg/mL	0.643
B. subtilis 168 [1], first compound 0.039 µg/mL, partner 25 µg/mL	0.038
B. subtilis 168 [1], first compound 0.039 µg/mL, partner 50 µg/mL	0.0608
B. subtilis 168 [1], first compound 0.039 µg/mL, partner 100 µg/mL	0.0402
S. pneumoniae D39V [2], first compound 0.125 µg/mL, partner 17.14 µg/mL	0.944
S. pneumoniae D39V [2], first compound 0.125 µg/mL, partner 20 µg/mL	≥ 1
S. pneumoniae D39V [2], first compound 0.125 µg/mL, partner 34.28 µg/mL	0.923
S. pneumoniae D39V [2], first compound 0.125 µg/mL, partner 40 µg/mL	≥ 1
S. pneumoniae D39V [2], first compound 0.25 µg/mL, partner 17.14 µg/mL	0.887
S. pneumoniae D39V [2], first compound 0.25 µg/mL, partner 34.28 µg/mL	0.886
S. pneumoniae D39V [2], first compound 0.5 µg/mL, partner 17.14 µg/mL	0.763
S. pneumoniae D39V [2], first compound 0.5 µg/mL, partner 20 µg/mL	0.883
S. pneumoniae D39V [2], first compound 0.5 µg/mL, partner 34.28 µg/mL	0.731
S. pneumoniae D39V [2], first compound 0.5 µg/mL, partner 40 µg/mL	0.865

fitness, S. pneumoniae D39V [2], one replicate
Details	partner 20 µg/mL	partner 40 µg/mL	partner 68.57 µg/mL	partner 80 µg/mL
first compound 0.125 µg/mL	–	–	0.952	–
first compound 0.25 µg/mL	0.994	≥ 1	0.964	0.531
first compound 0.5 µg/mL	–	–	0.886	–

Details	Bliss interaction score
B. subtilis 168 [3]	0.199
S. aureus DSM 20231	-0.258
S. aureus Newman	-0.0992
S. pneumoniae D39V [4]	0.109

C[C@H]1c2cccc(O)c2C(=O)C2=C(O)[C@]3(O)C(=O)C(C(N)=O)=C(O)[C@@H](N(C)C)[C@@H]3[C@@H](O)[C@@H]21 [Doxycycline] + CCC[C@@H]1C[C@@H](C(=O)N[C@@H]([C@H]2O[C@H](SC)[C@H](O)[C@@H](O)[C@H]2O)[C@@H](C)O)N(C)C1 [Lincomycin]
fitness
Details	partner 0.1 µg/mL	partner 0.2 µg/mL	partner 0.215 µg/mL	partner 0.4 µg/mL	partner 0.43 µg/mL	partner 0.8 µg/mL	partner 0.86 µg/mL
B. subtilis 168 [1], first compound 0.02 µg/mL	0.918	0.888	–	0.885	–	–	–
B. subtilis 168 [1], first compound 0.04 µg/mL	0.764	0.72	–	0.717	–	–	–
S. pneumoniae D39V [2], first compound 0.0155 µg/mL	–	0.76	0.726	0.657	0.62	0.213	0.344
S. pneumoniae D39V [2], first compound 0.031 µg/mL	–	–	0.716	–	0.625	–	0.298
S. pneumoniae D39V [2], first compound 0.062 µg/mL	–	–	0.674	–	0.481	–	0.221

fitness, one replicate
Details	first compound 0.003875 µg/mL	first compound 0.00775 µg/mL	first compound 0.02 µg/mL	first compound 0.031 µg/mL	first compound 0.04 µg/mL	first compound 0.062 µg/mL	first compound 0.08 µg/mL
B. subtilis 168 [1], partner 0.8 µg/mL	–	–	0.881	–	0.693	–	0.209
B. subtilis 168 [1], partner 1.6 µg/mL	–	–	0.792	–	0.549	–	0.153
S. pneumoniae D39V [2], partner 0.2 µg/mL	0.822	0.77	–	0.636	–	0.374	–
S. pneumoniae D39V [2], partner 0.4 µg/mL	0.748	0.711	–	0.398	–	0.146	–
S. pneumoniae D39V [2], partner 0.8 µg/mL	0.231	0.303	–	0.163	–	0.0672	–

Details	Bliss interaction score
B. subtilis 168 [3]	0.0648
S. aureus DSM 20231	-0.228
S. aureus Newman	-0.0975
S. pneumoniae D39V [4]	-0.13

C[C@H]1c2cccc(O)c2C(=O)C2=C(O)[C@]3(O)C(=O)C(C(N)=O)=C(O)[C@@H](N(C)C)[C@@H]3[C@@H](O)[C@@H]21 [Doxycycline] + CCN(CC)CCOC(=O)c1ccc(N)cc1 [Procaine]
fitness
Details	partner 85.5 µg/mL	partner 171 µg/mL	partner 342 µg/mL
B. subtilis 168 [1], first compound 0.02 µg/mL	0.892	0.855	0.844
B. subtilis 168 [1], first compound 0.04 µg/mL	0.742	0.707	0.7
B. subtilis 168 [1], first compound 0.08 µg/mL	–	0.363	–
S. pneumoniae D39V [2], first compound 0.0155 µg/mL	0.972	0.95	0.955
S. pneumoniae D39V [2], first compound 0.031 µg/mL	0.862	0.835	0.849
S. pneumoniae D39V [2], first compound 0.062 µg/mL	0.77	0.753	0.744

fitness, S. pneumoniae D39V [2], one replicate
Details	partner 85.5 µg/mL	partner 171 µg/mL	partner 342 µg/mL
first compound 0.003875 µg/mL	≥ 1	≥ 1	≥ 1
first compound 0.00775 µg/mL	≥ 1	0.971	0.994

Details	Bliss interaction score
B. subtilis 168 [3]	-0.0366
S. aureus DSM 20231	-0.0922
S. aureus Newman	0.0409
S. pneumoniae D39V [4]	0.0386

C[C@@H]1O[C@@H]1P(=O)(O)O [Fosfomycin] + CN(C)C(=O)C(CCN1CCC(O)(c2ccc(Cl)cc2)CC1)(c1ccccc1)c1ccccc1 [Loperamide]
fitness
Details	first compound 1.25 µg/mL	first compound 1.562 µg/mL	first compound 2.5 µg/mL	first compound 3.124 µg/mL	first compound 5 µg/mL	first compound 6.248 µg/mL
B. subtilis 168 [1], partner 25 µg/mL	–	0.743	–	0.625	–	0.534
B. subtilis 168 [1], partner 100 µg/mL	–	0.0187	–	0.0366	–	0.011
S. pneumoniae D39V [2], partner 17.14 µg/mL	0.957	–	0.952	–	0.722	–
S. pneumoniae D39V [2], partner 20 µg/mL	≥ 1	–	0.985	–	0.81	–
S. pneumoniae D39V [2], partner 34.28 µg/mL	0.954	–	0.961	–	0.74	–
S. pneumoniae D39V [2], partner 40 µg/mL	≥ 1	–	≥ 1	–	0.77	–

S. pneumoniae D39V [2], partner 68.57 µg/mL, one replicate
Details	fitness
first compound 1.25 µg/mL	0.969
first compound 2.5 µg/mL	0.515
first compound 5 µg/mL	0.861

Details	Bliss interaction score
B. subtilis 168 [3]	0.305
S. aureus DSM 20231	0.116
S. aureus Newman	-0.0773
S. pneumoniae D39V [4]	0.0632
